{"source": "patent US20260309717A1", "about": "“PROXIMITY INDUCING SYSTEM AND USES THEREOF” (SORBONNE UNIVERSITE, priority 2022, published 2026)", "key": {"[1]": {"target": "T1, mCherry-^FIREtag / Lyn11-ECFP-^FIREmate (Halorhodospira halophila, UniProt P16113, A30V/C69G/D97P/F96I, form not given/G21E/G25R/K17N/M100R/M109L/Q41L/Q99S/S72T/T101G/V83A/Y94W/Y98T)", "T1 construct": "Lyn11-ECFP-FIREmate and mCherry-FIREtag in HEK293 cells", "T1 sequence (P16113 1-114 A30V/C69G/D97P/F96I/G21E/G25R/K17N/M100R/M109L/Q41L/Q99S/S72T/T101G/V83A/Y94W/Y98T)": "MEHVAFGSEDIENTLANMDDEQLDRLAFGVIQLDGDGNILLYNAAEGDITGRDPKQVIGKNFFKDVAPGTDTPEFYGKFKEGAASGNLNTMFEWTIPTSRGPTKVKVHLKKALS", "assay": "Recruitment of cytoplasmic protein to the plasma membrane, HEK293 cells", "type": "cell-based", "details": "10 μM", "procedure": "FIGS. 8A-E illustrate the recruitment of cytoplasmic proteins to the plasma membrane with the proximity inducing system described herein. FIG. 8A is a representation of the experimental design wherein HEK293 cells co-expressing mCherry-^FIREtag and Lyn11-ECFP-^FIREmate were treated with 10 μM of match (either HBR-2,5DM or HMBR), and imaged by time-lapse confocal microscopy. FIGS. 8B-C are graphs showing the temporal evolution of the FIRE signal detected upon addition at 0 min of HBR-2,5DM (match1-8B) or HMBR (match2-8C). Data represents the mean values±SD of 22 cells from n=3 independent experiments (8B, D), or of 30 cells from n=3 independent experiments (8C, E). FIGS. 8D-E are sets of representative confocal micrographs of cells before (0 min) and after (5 min) addition of HBR-2,5DM (match1-8D) or HMBR (match2-8E) (mCherry: ex/em 561/606-675 nm; FIRE: ex/em 488/508-570 nm; ECFP: ex/em 445/455-499 nm). […] Scale bars are 20 μm.\nThe confocal micrographs were acquired on a Zeiss LSM 980 Laser Scanning Microscope equipped with a plan apochromat 63x/1.4 NA oil immersion objective. ZEN software was used to collect the data. The images were analyzed using Icy (2.4.0.0) and Fiji (Image J). In short, to track fluorescence signal in a specific organelle, a ROI (region of interest) was determined by masking the signal in the ECFP (Enhanced Cyan Fluorescent Protein) channel with the plug-in HK-means with the following parameters: intensity class equals 100, minimum object size (pixels or px) equals 500, maximum object size (px) equals 1500-3000. The signal intensity of the ROI was tracked over time for each channel by using plug-in Active Contours. The background signal was subtracted. Data were processed using GraphPad Prism v9.3.0.\nTo further evaluate the scope of the proximity inducing system described herein and show its versatility, ^FIREmate was anchored at the membrane of various organelles or cellular structures so that ^FIREmate faced the cytosol. ^FIREmate was thus fused: • to the N-terminus of the transmembrane domain (amino acid residues at positions 3131-3259) of Giantin for location at the cis-medial rims of the Golgi apparatus (FIG. 6A), • to the N-terminus of the transmembrane domain (amino acid residues at positions 100-134) of the cytochrome b5 (Cb5) for location at the endoplasmic reticulum membrane (FIG. 7A), and • to the C-terminus of the Lyn11 inner membrane targeting sequence for location at the plasma membrane (FIG. 8A).\nFor each construct, an ECFP was inserted between ^FIREmate and the other protein domain/sequence to monitor the localization of the resulting fusion protein (blue fluorescence). Each fusion protein was co-expressed in mammalian cells (HeLa cells or HEK293 cells as indicated) together with mCherry-^FIREtag (red fluorescence). […]"}, "[2]": {"target": "T2, ^FIREmate and ^FIREtag (TOM20-ECFP-^FIREmate / mCherry-^FIREtag) (Halorhodospira halophila, UniProt P16113, A30V/C69G/D97P/F96I, form not given/G21E/G25R/K17N/M100R/M109L/Q41L/Q99S/S72T/T101G/V83A/Y94W/Y98T)", "T2 construct": "TOM20(1-34)-ECFP-FIREmate and mCherry-FIREtag in HeLa or U2OS cells", "T2 sequence (P16113 1-114 A30V/C69G/D97P/F96I/G21E/G25R/K17N/M100R/M109L/Q41L/Q99S/S72T/T101G/V83A/Y94W/Y98T)": "T1 sequence (P16113 1-114 A30V/C69G/D97P/F96I/G21E/G25R/K17N/M100R/M109L/Q41L/Q99S/S72T/T101G/V83A/Y94W/Y98T)", "assay": "Stability of the ternary assembly over time at mitochondria, time-lapse confocal microscopy, U2OS cells", "type": "cell-based", "details": "10 μM; 1 image every 2 minutes", "procedure": "FIGS. 4A-D illustrate the recruitment over time of cytoplasmic proteins to mitochondria with the proximity inducing system described herein. (4A, C) HeLa cells co-expressing mCherry-^FIREtag and Tom20-ECFP-^FIREmate were treated with 10 μM HBR-2,5DM and imaged by time-lapse confocal microscopy at 1 image per 5 seconds. (4B, D) U2OS cells co-expressing mCherry-^FIREtag and Tom20-ECFP-^FIREmate were treated with 10 μM HBR-2,5DM and imaged by time-lapse confocal microscopy at 1 image every 2 minutes. FIG. 4A is a representative time-lapse of the HeLa cells from the addition of HBR-2,5DM at 0 sec (ex/em 488/508-570 nm). […] Scale bars are 20 μm. FIG. 4B is a representative time-lapse of the U2OS cells from the addition of HBR-2,5DM at 0 min (mCherry: ex/em 561/606-675 nm; FIRE: ex/em 488/508-570 nm; ECFP: ex/em 445/455-499 nm). […] Scale bars are 20 μm. FIG. 4C is a graph showing the temporal evolution of the FIRE signal detected in HeLa cells upon addition of HBR-2,5DM at 0 sec. […] FIG. 4D is a graph showing the temporal evolution of the FIRE signal detected in U2OS cells upon addition of HBR-2,5DM at 0 min. […]\nThe confocal micrographs were acquired on a Zeiss LSM 980 Laser Scanning Microscope equipped with a plan apochromat 63x/1.4 NA oil immersion objective. […] The images were analyzed using Icy (2.4.0.0) and Fiji (Image J). […]"}}, "data": [{"smiles": "Cc1cc(/C=C2\\SC(=S)NC2=O)c(C)cc1O", "note": "[HBR-2,5DM, (Z)-5-(4-hydroxy-2,5-dimethylbenzylidene)-2-thioxo-1,3-thiazolidin-4-one]", "values": [{"measurement": "FIRE signal at the plasma membrane", "setting": "[1]", "result": "simultaneous appearance of green fluorescence"}, {"measurement": "translocation of mCherry-^FIREtag to the plasma membrane", "setting": "[1]", "result": "rapid translocation of mCherry-^FIREtag to the organelle"}, {"measurement": "duration of fluorescence detected (stability of the ternary fluorescent assembly)", "setting": "[2]", "result": "more than 25 minutes"}]}]}
